Experimental data published in patent publication US20260055097A9, “NRF2 PROTEIN DEGRADERS” (Ganymede Oncology, Inc., priority 2022, published 2026).

Experiments:
[1] = tested on: LK-2; test: Cancer cell viability, LK-2 (CellTiter-Glo); assay type: cell-based; conditions: Homo sapiens, LK-2, 72 h, LK-2 cells, 3 days, read-out: Cellular IC50 (μM) LK-2
Method in brief: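 A549 and LK-2 cells were seeded overnight at 20 K/mL and 35 K/mL respectively. They were then exposed for 3 days to nine three-fold dilutions, typically from 30 µM final. Viability was read as CellTiter-Glo luminescence after a 15 min lysis.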

[2] = tested on: A549; test: Cancer cell viability, A549 (CellTiter-Glo); assay type: cell-based; conditions: Homo sapiens, 72 h, A549 cells, 3 days, read-out: Cellular IC50 (μM) A549
Method in brief: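 A549 and/or LK-2 lung carcinoma cells seeded overnight (20 K/mL A549; 35 K/mL LK-2), then exposed to compound for 3 days. Viability read as CellTiter-Glo luminescence after 15 min lysis; data fitted to curves.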

| IC50 [1] | IC50 [2] | SMILES |
| --- | --- | --- |
| 0.003 µM | 0.01 µM | Cc1sc(NC(=O)Cc2ccc(F)c(OCCOCCNc3ccc4c(c3)CN(C3CCC(=O)NC3=O)C4=O)c2)nc1-c1ccc2c(c1)CCN2C(=O)c1cncn1C (stereo not shown) [Cpd. No. 30, 2-(3-(2-(2-((2-(2,6-dioxopiperidin-3-yl)-1-oxoisoindolin-5-yl)amino)ethoxy)ethoxy)-4-fluorophenyl)-N-(5-methyl-4-(1-(1-methyl-1H-imidazole-5-carbonyl)indolin-5-yl)thiazol-2-yl)acetamide] |
| 0.02 µM | 0.06 µM | Cc1sc(NC(=O)Cc2cccc(OCCOCCNc3cccc4c3C(=O)N(C3CCC(=O)NC3=O)C4=O)c2)nc1-c1ccc2c(c1)CCN2C(=O)C1CC1 (stereo not shown) [Cpd. No. 34, N-(4-(1-(cyclopropanecarbonyl)indolin-5-yl)-5-methylthiazol-2-yl)-2-(3-(2-(2-((2-(2,6-dioxopiperidin-3-yl)-1,3-dioxoisoindolin-4-yl)amino)ethoxy)ethoxy)phenyl) acetamide] |
